# Source: PubChem BioAssay AID1959 (Broad Institute, 2009)
# Active and inactive are the calls of the source.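 The calls were made as follows: active = growth-inhibition EC50 no more than tenfold above the top tested dose; inconclusive = flat fit between 30% and 70% inhibition, or unreliable fit; inactive = EC50 more than tenfold above the top tested dose.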
# Test system: E. coli NEB5alpha growth, BacTiter-Glo luminescence, 4 h
# Experiment: Escherichia coli growth inhibition, dose response, counter-screen for MEX-5/POS-1 RNA-binding inhibitor project, luminescence, NEB5alpha (AID 1959);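 also: pUC19-transformed ampicillin-resistant cells grown in LB with ampicillin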
row,SMILES,EC50
1,COc1ccc2c(c1)C1C=CCC1C(c1cc3c(cc1Br)OCO3)N2 (stereo not drawn),> 11 µM (inactive)
2,Nc1c(C(=O)c2ccc(Br)s2)oc2ccccc12,> 11 µM (inactive)
3,COc1ccc(OC)c(S(=O)(=O)NC2CCN(Cc3ccccc3)CC2)c1,> 11 µM (inactive)
4,CCN1C/C(=C/c2cccs2)c2nc3ccccc3c(C(=O)O)c2C1,> 11 µM (inactive)
5,NS(=O)(=O)c1ccc2c(c1)C1C=CCC1C(C1CC=CCC1)N2 (stereo not drawn),> 11 µM (inactive)
6,O=C(Nc1ccccc1O)c1cccc(S(=O)(=O)Nc2ccccc2O)c1,> 11 µM (inactive)
7,Cc1ccc(Sc2ccc(C=C3C(=O)N(C)C(=O)N(C)C3=O)o2)cc1,> 11 µM (inactive)
8,ON=C1/C(=N\O)CC2(C/C1=N/O)OCCO2,> 11 µM (inactive)
9,N#Cc1ccccc1CN1C(=O)S/C(=C/c2cccn2-c2ccc(C(=O)O)cc2)C1=O,> 11 µM (inactive)
10,Cc1nc(S/C(C(=O)O)=C2/C(=O)Nc3ccccc32)n[nH]1,> 11 µM (inactive)
11,CN(C)/C=C/C(=O)c1cnc(-c2ccccc2Cl)s1,> 11 µM (inactive)
12,CN1C(=O)/C(=C/c2ccc3c(c2)OCO3)N=C1c1ccccc1,> 11 µM (inactive)
13,CCOC(=O)c1nn(-c2ccc(C)cc2)c2nc(Nc3ccccc3)cc(=O)n12,> 11 µM (inactive)
14,O=C(c1ccc(Br)o1)N1CCN=C1SCc1cccc(F)c1,> 11 µM (inactive)
15,O=C1c2ccccc2C(=O)c2[nH]cnc21,> 11 µM (inactive)
16,CC1(OC(=O)CCc2ccccc2)C(=O)C=C2C=C(c3ccsc3)OC=C2C1=O (stereo not drawn),> 11 µM (inactive)
17,CC1=CC(C)(C)N2C(=O)C3(C(C#N)=C(N)OC4=C3C(=O)CC(C)(C)C4)c3cccc1c32 (stereo not drawn),> 11 µM (inactive)
18,O=C(Cc1nc2ccccc2[nH]c1=O)c1ccccc1,> 11 µM (inactive)
19,O=C1C2CC=C(Cl)CC2C(=O)N1CCc1ccccc1 (stereo not drawn),> 11 µM (inactive)
20,CCCCC1=CC2=CC(=O)C(C)(OC(=O)c3cnc4ccccc4n3)C(=O)C2=CO1 (stereo not drawn),> 11 µM (inactive)
21,Cc1ccc(-n2c(=O)c(C#N)cc3c(=O)n4ccccc4nc32)cc1C,> 11 µM (inactive)
22,NC(=O)c1sc2nnc(-c3ccccc3)c(-c3ccccc3)c2c1N,> 11 µM (inactive)
23,COc1ccc(NC(=O)c2ccc(NCCCN3CCOCC3)c([N+](=O)[O-])c2)cc1,> 11 µM (inactive)
24,O=C(N/N=C/C=C/c1ccc([N+](=O)[O-])cc1)c1cccs1,> 11 µM (inactive)

row,SMILES,EC50
1,COc1cc(/C=C2\CCc3c2nc2ccccc2c3C(=O)O)cc(OC)c1OC,> 11 µM (inactive)
2,COc1ccc(C2=CC3=C(Br)C(=O)C(C)(OC(=O)c4ccc(Cl)nc4)C(=O)C3=CO2)cc1 (stereo not drawn),> 11 µM (inactive)
3,NC(CO)C(=O)NNCc1ccc(O)c(O)c1O (stereo not drawn),> 11 µM (inactive)
4,O=C(NNC(=O)c1cc(Cl)ccc1O)c1cccc(S(=O)(=O)N2CCOCC2)c1,> 11 µM (inactive)
5,O=CN/N=C/c1c(O)ccc2ccccc12,> 11 µM (inactive)
6,COc1ccccc1NC(=S)NNC(=O)c1cc(C)n(C)n1,> 11 µM (inactive)
7,Cc1c(/C=N/NC(=O)c2cc(=O)[nH]c(=O)[nH]2)c2ccccn2c1C(=O)c1ccccc1,> 11 µM (inactive)
8,COc1ccc(-c2onc3ccc(C(C)=O)cc23)cc1,> 11 µM (inactive)
9,O=C(N/N=C\c1ccc(-c2ccc(Cl)c(Cl)c2)o1)C(=O)N1CCCC1,> 11 µM (inactive)
10,COCCCNC(CC(=O)Nc1cc(C)cc(C)c1)C(=O)O (stereo not drawn),> 11 µM (inactive)
11,Nc1ccc2nc3c(=O)[nH]c(=S)[nH]c3nc2c1,> 11 µM (inactive)
12,Cc1cc(/C=C2\SC(=S)N(Cc3ccco3)C2=O)c(C)n1-c1cccnc1,> 11 µM (inactive)
13,Oc1ccc(-c2csc(Nc3ccccn3)n2)cc1O,> 11 µM (inactive)
14,CCCCCCn1c(=O)[nH]c2nc3cc(N)ccc3nc2c1=O,> 11 µM (inactive)
15,O=C(O)CCN1C(=O)/C(=C/c2ccc(-c3nc4ccccc4s3)o2)SC1=S,> 11 µM (inactive)
16,COC(=O)C1=C(C)N=C2SC(C#N)=C(N)N2C1c1cccc(OC)c1 (stereo not drawn),> 11 µM (inactive)
17,COc1ccc(C(=O)NC2(C(F)(F)F)C(=O)N(Cc3ccco3)C3=C2C(=O)CC(C)(C)C3)cc1OC (stereo not drawn),> 11 µM (inactive)
18,CC(C)(C)c1nn(-c2ccccc2)c2[nH]c(=O)c(CNCc3ccco3)cc12,> 11 µM (inactive)
19,Cc1ccc(N2C(=O)/C(=C/c3ccc(CN(CCC#N)S(C)(=O)=O)o3)C(=O)NC2=S)cc1C,> 11 µM (inactive)
20,Cc1ccc2nc3c(cc(C(=O)NCC4CCCO4)c(=N)n3C3CCCC3)c(=O)n2c1 (stereo not drawn),> 11 µM (inactive)
21,Cc1ccc2oc(=O)c(/C=C(\O)CC(C)C)nc2c1,> 11 µM (inactive)
22,Nc1ccc2nc(-c3ccccc3)c(-c3ccccc3)nc2c1,> 11 µM (inactive)
23,COc1cc2c(cc1OC)C(c1ccc(-c3ccc(Cl)c(Cl)c3)o1)=NCC2,> 11 µM (inactive)
24,CC(=O)Oc1cc2cccc(OC(C)=O)c(=O)c2c(OC(C)=O)c1OC(C)=O,> 11 µM (inactive)
